Results on eight molecules are retold here after patent US5824692A (priority 1995, dated 1998).

The structures appear in SMILES notation.

The assay relates to dopamine release, synaptosomes from the striatal area of rat brain. The assay can be described thus: Dopamine release from rat striatal synaptosomes. It is filed as biochemical, rat (Sprague-Dawley). Conditions: [3H]-dopamine release, relative to (S)-(-)-nicotine. Here is the method:
Determination of Dopamine Release
Dopamine release was measured by preparing synaptosomes from the striatal area of rat brain obtained from Sprague-Dawley rats generally according to the procedures set forth by Nagy et al., J. Neurochem., Vol. 43, pp. 1114-1123 (1984). Striata from 4 rats were homogenized in 2 ml of 0.32M sucrose buffered with 5 mM HEPES (pH 7.5), using a glass-Teflon tissue grinder. The homogenate was diluted to 5 ml with additional homogenization solution and centrifuged at 1,000 x g for 10 min. This procedure was repeated on the new pellet and the resulting supernatant was centrifuged at 12,000 x g for 20 min. A 3 layer discontinuous Percoll gradient consisting of 16 percent, 10 percent and 7.5 percent Percoll in HEPES-buffered sucrose was made with the final pellet dispersed in the top layer. After centrifugation at 15,000 x g for 20 min., the synaptosomes were recovered above the 16 percent layer with a Pasteur pipette, diluted with 8 ml of perfusion buffer (128 mM NaCl, 2.4 mM KCl, 3.2 mM CaCl2, 1.2 mM KH2 PO4, 1.2 mM MgSO4, 25 mM HEPES pH 7.4, 10 mM dextrose, 1 mM ascorbate, 0.01 mM pargyline), and centrifuged at 15,000 x g for 20 min. The new pellet was collected and re-suspended in perfusion buffer. The synaptosome suspension was incubated for 10 min. at 37° C. [^3 H]-Dopamine (Amersham, 40-60 Ci/mmol) was added to the suspension to give a final concentration of 0.1 uM, and the suspension was incubated for another 5 min. Using this method, 30 to 90 percent of the dopamine was taken up into the synaptosomes, as determined by scintillation counting following filtration through glass fiber filters soaked with 0.5 percent polyethyleneimine. A continuous perfusion system was used to monitor release following exposure to each ligand. Synaptosomes were loaded onto glass fiber filters (Gelman type A/E). Perfusion buffer was dripped onto the filters (0.2-0.3 ml/min.) and pulled through the filters with a peristaltic pump. Synaptosomes were washed with perfusion buffer for a minimum of 20 min. before addition of the ligand. After the addition of 0.2 ml of a solution containing various concentrations of ligand, the perfusate was collected into scintillation vials at 1 min. intervals and the dopamine released was quantified by scintillation counting. Peaks of radioactivity released above background were summed and the average basal release during that time was subtracted from the total.

On to `NCC/C=C/c1cncnc1.O=C(O)/C=C/C(=O)O` [Sample No. 1, (E)-4-(5-pyrimidinyl)-3-butene-1-amine monofumarate], for which the “Dopamine Release Emax” value worked out at 113 % nicotine.

For the molecule `CNCC/C=C/c1cncnc1` [Sample No. 2, (E)-N-methyl-4-(5-pyrimidinyl)-3-butene-1-amine], the “Dopamine Release Emax” value was determined as 77 % nicotine.

Regarding `COc1cncc(/C=C/CCN)c1` [Sample No. 3, (E)-4-[3-(5-methoxypyridin)yl]-3-butene-1-amine monofumarate], the “Dopamine Release Emax” value worked out at 95 % nicotine.

With `CNCCC#Cc1cccnc1` [Sample No. 4, N-Methyl-4-(3-pyridinyl)-3-butyne-1-amine], the “Dopamine Release Emax” value turned out to be 87 % nicotine.

As for `CNCC/C=C\c1cccnc1` [Sample No. 5, (Z)-metanicotine], the “Dopamine Release Emax” value was determined as 88 % nicotine.

For `CNCC/C=C/c1ccc(C)nc1` [Sample No. 6, (E)-N-methyl-4-[3-(6-methylpyrindin)yl]-3-butene-1-amine], the “Dopamine Release Emax” value came out at 60 % nicotine.

For `CN1CCC[C@H]1c1cccnc1` [Sample No. C-1, (S)-(-)-nicotine, reference compound], the “Dopamine Release Emax” value is recorded as 100 % nicotine.

Consider `CNCC/C=C/c1cccnc1` [Sample No. C-2, (E)-metanicotine, reference compound], for which the “Dopamine Release Emax” value amounted to 80 % nicotine.
